# Patent US6642365B1, “Anti-(retro)viral conjugates of saccharides and acetamidino or guanidino compounds” (Yeda Research and Development Co. Ltd., priority 2001, dated 2003)
# Read-outs that look alike come from different tables or passages of the source.
# Key:
# [1] = system: TAR RNA; assay: L-arginine-Amberlite affinity column elution of TAR RNA; assay type: binding, HIV-1; settings: concentration that elutes 50% of TAR RNA from L-arginine-Amberlite affinity column
# Description: (§1) The model Tat peptide (R52: […]) was prepared by the Weizmann Institute Chemical Services and was purified by reverse phase HPLC (C-18) (Lapidot et al., 1995). […] The RNA was transcriptionally labeled with α-^32P UTP, purified on a 12% polyacrylamide/7M urea gel (19:1 acrylamide:bis-acrylamide) and was eluted from the gel by 0.5M ammonium acetate, 10 mM magnesium acetate, 1 mM EDTA and 0.1% SDS. The sample was subjected to phenol extraction and the RNA was precipitated from 70% ethanol. Purified RNA was dissolved in diethyl pyrocarbonate-treated water (DEPC water), its concentration was determined by UV absorption at 260 nm and the specific radioactivity was determined by scintillation counting on a LS 1701 “Bruker” counter.
# The L-arginine-Amberlite resin was prepared as follows: Carboxyl groups of Amberlite IRC-50 resin were covalently modified with ethanolamine using 1-(3-dimethylaminopropyl) 3-ethylcarbodiimide, a water-soluble coupler. The hydroxy ethyleneamide resin obtained was washed and dried, and L-arginine (12-16 μmols per ml of resin) was coupled to the hydroxy groups of the resin via an isourea moiety using a standard cyanogen bromide protocol. The final concentration of arginine residues was 12-16 μmol per ml of resin. The swollen L-arginino-Amberlite resin (200 μl) was packed into a plastic mini-column and equilibrated with buffer containing 40 mM Tris HCl, pH 7.5, 250 mM NaCl, 0.5 mM EDTA and 5 mM MgCl2 (buffer A). Approximately 1 ng of ^32P-UTP labeled TAR RNA in buffer A was loaded on the column. The column was eluted 3 to 5 times with 400 μl portions of buffer A, until no radioactivity was detected in the eluent. […] Each of the test compounds was dissolved in buffer A and passed through the column in 300 μl portions. Radioactivity of the eluates was determined by scintillation counting on a LS 1701 “Bruker” counter. CE50 values, the concentrations of inhibitors eluting 50% of the radioactive material from the column, were determined.
# [2] = molecular target: Tat-TAR interaction; assay: Gel-shift inhibition of Tat R52 peptide binding to TAR RNA; design: species or system HIV-1; settings: TAR RNA 2 nM; read-out: CI50 (the source's name)
# [3] = molecular target: Tat-TAR interaction; assay: as above; design: species or system HIV-1; settings: TAR RNA 6 nM; 60 nM Tat R52; read-out: CI50 (the source's name)
# Description: The model Tat peptide (R52: […]) was prepared by the Weizmann Institute Chemical Services and was purified by reverse phase HPLC (C-18) (Lapidot et al., 1995). A 31-nt TAR RNA fragment (5′-GGCCAGAUCUGAGCCUGGGAGCUCUCUGGCC-3′) containing the sequence 18-44 of the HIV LTR (Aboul-Ela et al., 1995) was transcribed in vitro by T7 RNA polymerase (Promega) from a synthetic single strand DNA template containing the 17 base double-stranded T7 promoter (both DNA oligonucleotides were prepared by the Weizmann Institute Chemical Services). The RNA was transcriptionally labeled with α-^32P UTP, purified on a 12% polyacrylamide/7M urea gel (19:1 acrylamide:bis-acrylamide) and was eluted from the gel by 0.5M ammonium acetate, 10 mM magnesium acetate, 1 mM EDTA and 0.1% SDS. The sample was subjected to phenol extraction and the RNA was precipitated from 70% ethanol. Purified RNA was dissolved in diethyl pyrocarbonate-treated water (DEPC water), its concentration was determined by UV absorption at 260 nm and the specific radioactivity was determined by scintillation counting on a LS 1701 “Bruker” counter.
# To study the affinity of the test compounds to TAR, gel-shift and gel-shift inhibition experiments were performed. The binding reaction mixtures (20 μl) contained ^32P-labeled TAR (18-44) RNA oligonucleotide (3-6 nM) and Tat R52 peptide (35-75 nM) in a binding buffer (10 mM Tris-HCl pH 7.5, 70 mM NaCl, 0.2 mM EDTA and 5% glycerol). The reaction mixtures were incubated for 10 minutes on ice and resolved by electrophoresis on a 10% non-denaturing polyacrylamide gel (40:1 acrylamide:bis-acrylamide) at 200V, for 3 h at 4° C. Gels were dried and visualized by autoradiography. Quantitations were obtained by optical densitometry of films. Alternatively, results were visualized by exposing the wet gels to Fuji phosphoimager plates, which were read on a “Storm 820” (Molecular Dynamics) phosphoimager. Different concentrations of TAR RNA (6,12 and 20 nM) were titrated with various concentrations of Tat R52 in the binding reactions.
# Binding inhibition by the monosaccharide derivatives was measured by adding several concentrations of each compound to reaction mixtures containing 60 nM Tat 52 and 6 nM ^32P TAR, attaining 100% binding of Tat TAR in the absence of inhibitors (Lapidot et al., 1995).
# [4] = system: TAR RNA; assay: Gel-shift binding to TAR RNA; design: species or system HIV-1; settings: for CD50: 50% binding; for effect of ten-fold excess of yeast tRNA on complex formation with TAR: ten-fold excess of tRNA (100 ng per lane)
# Description: as §1
# To study the affinity of the test compounds to TAR, gel-shift and gel-shift inhibition experiments were performed. The binding reaction mixtures (20 μl) contained ^32P-labeled TAR (18-44) RNA oligonucleotide (3-6 nM) and Tat R52 peptide (35-75 nM) in a binding buffer (10 mM Tris-HCl pH 7.5, 70 mM NaCl, 0.2 mM EDTA and 5% glycerol). The reaction mixtures were incubated for 10 minutes on ice and resolved by electrophoresis on a 10% non-denaturing polyacrylamide gel (40:1 acrylamide:bis-acrylamide) at 200V, for 3 h at 4° C. Gels were dried and visualized by autoradiography. Quantitations were obtained by optical densitometry of films. Alternatively, results were visualized by exposing the wet gels to Fuji phosphoimager plates, which were read on a “Storm 820” (Molecular Dynamics) phosphoimager. […]
# Binding of aminoglycoside-arginine conjugates (AAC) to TAR RNA was measured by adding varying concentrations of each conjugate to reaction mixtures (20 μl) which contained 12 nM ^32P-labeled TAR RNA. The reactions were analyzed as described above.
# [5] = system: TAR RNA; assay: Gel-shift binding to TAR RNA; design: species or system HIV-1; settings: 50% binding; TAR RNA 2 nM
# [6] = system: TAR RNA; assay: RNase A footprinting of TAR RNA; assay type: binding, HIV-1; settings: 1 μM TAR, 200 pM RNase A
# Description: In a typical experiment 10 μl of 5 mM cacodylate buffer pH 6.5, containing 25 mM KCl and 50-100 ng 5′ ^32P-labeled TAR RNA (approximately 0.5-1 μM) were incubated with 200 pM RNase A (Sigma) at room temperature for 10 minutes in the presence of Tat R52 and the conjugates of the invention at various concentrations. In the competition experiments, the mixture was supplemented with 0.5 μg yeast tRNA (Sigma). After the incubation, 10 μl of formamide/bromphenol blue loading buffer was added to the samples. The samples were heated to 80° C. for 2 min and were resolved by electrophoresis on 40 cm×0.8 mm 20% polyacrylamide denaturing gel (7M urea) for 3 hours at 55° C. The results were visualized by a phosphoimager as described above and quantitated using ImageQuant software.
# TAR RNA and RNase A concentrations were established by co-titration. To produce a “single-hit” kinetics conditions, 1 μM TAR versus 200 pM RNase A were selected. Tat R52 and AAC concentrations were determined by titration. […] RNase A cleaved TAR RNA in an uneven manner (FIG. 4A., lane 2). The most susceptible regions for cleavage were the single-stranded loop, nucleotides U31-G34 as well as C24 and U25 of the bulge. Strong cleavage was also observed at G21-G41 and A20-U42 pairs (lower stem). Binding of R52 (2-4 μM) caused a weakening of the bands in the upper stem region, (G26-C39, A27-C38, as well as U40) (FIG. 4A., lanes 3, 4). At 4 μM R52, the cleavage at G34 (loop) was enhanced, as well as a certain enhancement of bands A20, G21, U23 and U25 was observed. Remarkably, the band corresponding to the R52-TAR complex still was observed on the gels even after electrophoresis under strongly denaturing conditions. In the presence of R4K (10-20 μM), the upper stem (G26-C29), the lower stem and the bulge (G21-U23, partially C24 and U25) were protected as well as C38, C39 and U40. Cleavage at C19 and A20 of the lower stem and C30, G33 and G34 of the loop was enhanced by 10 μM R4K, whereas with 20 μM R4K the protection of C30, G34 and A20-G21 was observed (FIG. 4A., lanes 5, 6). […] Cleavages at C19-A20 in the lower stem as well as at G30 and G34 in the loop were observed (FIG. 4A., lanes 7, 8). In the presence of GB4K (20 μM) no significant protection was observed.
Molecule,CE50 [1] [mM],IC50 [2] [mM],IC50 [3] [mM],CD50 ([4]; TAR RNA 6 nM) [nM],CD50 ([4]; TAR RNA 12 nM) [nM],CD50 ([4]; TAR RNA 20 nM) [nM],effect of ten-fold excess of yeast tRNA on complex formation with TAR [4],effect of ten-fold excess of yeast tRNA on complex formation with TAR ([4]; listed as R52),CD50 [5] [nM],concentration giving effective protection of TAR [6] [µM]
"Cl.N=C(N)NCCC[C@H](N)C(=O)O [Arginine HCl, reference compound]",1500,4,38,,,,,,,
"YKKKRKKKKKA [Tat R52 peptide, Tat-derived model undeca peptide, containing a single arginine moiety at position 52 of native Tat protein, in the strand of lysines, reference compound]",0.5,,,35,75,200,do not inhibit the binding,did not inhibit complex formation,6 to 12,2
